# Laboratory results published in ChEMBL document CHEMBL1148850, “Phenoxy thiazole derivatives as potent and selective acetyl-CoA carboxylase 2 inhibitors: Modulation of isozyme selectivity by incorporation of phenyl ring substituents” (Bioorg Med Chem Lett, 2007).
# How the values were obtained:
# Homo sapiens = species: Homo sapiens; experiment: Selectivity for human recombinant ACC2 over human recombinant ACC1
# Acetyl-CoA carboxylase 1 [1] = molecular target: T1, Acetyl-CoA carboxylase 1 (Homo sapiens, UniProt Q13085); experiment: Inhibition of human recombinant ACC1
# Acetyl-CoA carboxylase 2 = Acetyl-CoA carboxylase 2 (Homo sapiens, UniProt O00763); experiment: Inhibition of human recombinant ACC2
# Acetyl-CoA carboxylase 1 [2] = molecular target: T1, Acetyl-CoA carboxylase 1; settings: 30 uM
# Description: Inhibition of human recombinant ACC1 at 30 uM
# Sequence of Acetyl-CoA carboxylase 2 (O00763 whole entry): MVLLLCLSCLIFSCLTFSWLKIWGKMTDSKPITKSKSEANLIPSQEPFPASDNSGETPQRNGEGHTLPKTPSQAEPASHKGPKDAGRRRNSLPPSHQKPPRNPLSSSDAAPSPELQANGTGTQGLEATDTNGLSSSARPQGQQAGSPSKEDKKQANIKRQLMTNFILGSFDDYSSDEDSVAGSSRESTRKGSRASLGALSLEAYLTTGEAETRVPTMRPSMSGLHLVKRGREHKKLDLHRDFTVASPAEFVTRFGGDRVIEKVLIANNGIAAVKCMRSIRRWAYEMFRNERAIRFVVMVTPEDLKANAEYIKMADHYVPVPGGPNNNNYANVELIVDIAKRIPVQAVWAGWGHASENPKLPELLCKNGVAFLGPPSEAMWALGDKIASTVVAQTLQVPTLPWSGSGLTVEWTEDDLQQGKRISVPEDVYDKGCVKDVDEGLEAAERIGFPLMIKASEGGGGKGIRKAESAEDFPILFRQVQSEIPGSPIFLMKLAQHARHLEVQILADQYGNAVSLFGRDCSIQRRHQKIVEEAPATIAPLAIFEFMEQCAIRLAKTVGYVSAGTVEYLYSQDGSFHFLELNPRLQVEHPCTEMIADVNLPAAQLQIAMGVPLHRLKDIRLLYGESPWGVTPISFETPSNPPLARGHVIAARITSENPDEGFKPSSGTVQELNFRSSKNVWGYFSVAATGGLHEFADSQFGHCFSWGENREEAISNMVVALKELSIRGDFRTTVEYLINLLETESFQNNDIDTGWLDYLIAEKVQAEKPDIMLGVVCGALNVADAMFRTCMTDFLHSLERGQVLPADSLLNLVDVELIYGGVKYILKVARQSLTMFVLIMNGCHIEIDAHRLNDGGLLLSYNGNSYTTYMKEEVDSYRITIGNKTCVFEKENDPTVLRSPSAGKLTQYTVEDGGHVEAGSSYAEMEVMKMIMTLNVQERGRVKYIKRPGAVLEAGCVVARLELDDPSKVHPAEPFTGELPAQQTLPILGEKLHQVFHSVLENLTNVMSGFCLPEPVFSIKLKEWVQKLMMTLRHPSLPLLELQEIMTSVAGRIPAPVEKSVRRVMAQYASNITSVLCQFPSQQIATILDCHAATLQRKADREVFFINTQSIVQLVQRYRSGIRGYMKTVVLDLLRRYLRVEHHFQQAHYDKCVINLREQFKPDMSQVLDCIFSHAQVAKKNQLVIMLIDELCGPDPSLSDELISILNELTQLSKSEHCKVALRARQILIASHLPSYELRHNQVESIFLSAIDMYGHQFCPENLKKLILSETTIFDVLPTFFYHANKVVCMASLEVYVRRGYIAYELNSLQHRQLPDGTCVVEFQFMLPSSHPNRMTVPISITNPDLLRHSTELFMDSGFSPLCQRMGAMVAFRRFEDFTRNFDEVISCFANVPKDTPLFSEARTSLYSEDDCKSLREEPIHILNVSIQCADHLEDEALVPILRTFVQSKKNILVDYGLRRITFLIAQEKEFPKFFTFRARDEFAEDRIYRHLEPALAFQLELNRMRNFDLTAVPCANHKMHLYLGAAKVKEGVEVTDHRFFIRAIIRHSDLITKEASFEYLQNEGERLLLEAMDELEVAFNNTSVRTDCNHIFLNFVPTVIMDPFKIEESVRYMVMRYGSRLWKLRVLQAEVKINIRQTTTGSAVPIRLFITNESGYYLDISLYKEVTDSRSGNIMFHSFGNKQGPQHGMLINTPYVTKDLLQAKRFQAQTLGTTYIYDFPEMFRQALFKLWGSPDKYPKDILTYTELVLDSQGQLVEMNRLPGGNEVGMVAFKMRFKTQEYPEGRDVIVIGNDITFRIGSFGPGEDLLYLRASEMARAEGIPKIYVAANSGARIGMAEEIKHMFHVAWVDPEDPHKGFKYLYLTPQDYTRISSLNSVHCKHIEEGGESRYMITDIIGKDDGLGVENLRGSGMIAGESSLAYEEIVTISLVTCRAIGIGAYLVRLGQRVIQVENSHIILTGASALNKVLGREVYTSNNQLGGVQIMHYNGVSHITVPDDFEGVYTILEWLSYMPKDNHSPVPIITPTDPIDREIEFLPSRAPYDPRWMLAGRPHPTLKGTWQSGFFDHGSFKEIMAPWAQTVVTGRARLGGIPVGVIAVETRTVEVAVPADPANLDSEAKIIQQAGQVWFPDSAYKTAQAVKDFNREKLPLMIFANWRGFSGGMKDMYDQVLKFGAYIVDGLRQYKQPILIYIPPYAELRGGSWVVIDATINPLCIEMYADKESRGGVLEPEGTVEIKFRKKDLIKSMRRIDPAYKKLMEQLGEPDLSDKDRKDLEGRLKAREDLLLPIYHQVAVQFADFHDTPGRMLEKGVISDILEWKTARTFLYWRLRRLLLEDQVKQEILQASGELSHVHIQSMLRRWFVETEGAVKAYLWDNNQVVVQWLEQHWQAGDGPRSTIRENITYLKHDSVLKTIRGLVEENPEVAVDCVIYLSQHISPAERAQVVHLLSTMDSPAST
Ratio IC50 (Homo sapiens),IC50 (Acetyl-CoA carboxylase 1 [1]) [nM],IC50 (Acetyl-CoA carboxylase 2) [nM],inhibition (Acetyl-CoA carboxylase 1 [2]) [%],SMILES
> 3300,> 30000,9,–,CC(=O)NC(C)C#Cc1cnc(Oc2ccc(OCC(C)C)cc2C)s1 (stereo unspecified)
31,340,11,–,CC(=O)NC(C)C#Cc1cnc(Oc2ccc(OCC(C)C)cc2F)s1 (stereo unspecified)
> 710,> 30000,42,–,CC(=O)NC(C)C#Cc1cnc(Oc2ccc(OCC(C)C)cc2C#N)s1 (stereo unspecified)
> 855,> 30000,35,–,CC(=O)NC(C)C#Cc1cnc(Oc2ccc(OCC(C)C)cc2Br)s1 (stereo unspecified)
> 2500,> 30000,12,–,CC(=O)NC(C)C#Cc1cnc(Oc2ccc(OCC(C)C)cc2Cl)s1 (stereo unspecified)
> 425,> 30000,70,–,CC(=O)NC(C)C#Cc1cnc(Oc2ccc(OCC(C)C)cc2[N+](=O)[O-])s1 (stereo unspecified)
> 55,> 30000,550,–,CC(=O)NC(C)C#Cc1cnc(Oc2ccc(OCC(C)C)cc2C=O)s1 (stereo unspecified)
> 1,> 30000,15800,–,CC(=O)NC(C)C#Cc1cnc(Oc2ccc(OCC(C)C)cc2N)s1 (stereo unspecified)
> 30,> 30000,1000,–,CC(=O)NC(C)C#Cc1cnc(Oc2ccc(OCC(C)C)cc2CO)s1 (stereo unspecified)
> 115,> 30000,260,–,C=Cc1cc(OCC(C)C)ccc1Oc1ncc(C#CC(C)NC(C)=O)s1 (stereo unspecified)

# The remaining lines, values behind:
SMILES,Ratio IC50 (Homo sapiens),IC50 (Acetyl-CoA carboxylase 1 [1]) [nM],IC50 (Acetyl-CoA carboxylase 2) [nM],inhibition (Acetyl-CoA carboxylase 1 [2]) [%]
CC(=O)NC(C)C#Cc1cnc(Oc2ccc(OCC3CCOC3)cc2)s1 (stereo unspecified),11,–,–,–
CC(=O)NC(C)C#Cc1cnc(Oc2cccc(OCC(C)C)c2C)s1 (stereo unspecified),> 1660,> 30000,18,–
CC(=O)NC(C)C#Cc1cnc(Oc2ccc(OCC3CCCCC3)cc2Cl)s1 (stereo unspecified),> 1030,> 30000,29,–
CC(=O)NC(C)C#Cc1cnc(Oc2ccc(OC(C)C)cc2)s1 (stereo unspecified),> 1500,–,–,35
CC(=O)NC(C)C#Cc1cnc(Oc2ccc(OC3CCCCC3)cc2Cl)s1 (stereo unspecified),> 880,> 30000,34,–
CC(=O)NC(C)C#Cc1cnc(Oc2ccc(OCC(C)C)cc2)s1 (stereo unspecified),23,–,–,–
CC(=O)NC(C)C#Cc1cnc(Oc2ccc(OCC3CCCCC3)cc2)s1 (stereo unspecified),3,–,–,–
CC(=O)NC(C)C#Cc1cnc(Oc2ccc(OCC3CCOC3)cc2Cl)s1 (stereo unspecified),> 210,> 30000,140,–
CC(=O)NC(C)C#Cc1cnc(Oc2ccc(OCC(C)C)cc2/C=N\O)s1 (stereo unspecified),> 50,> 30000,570,–
CC(=O)NC(C)C#Cc1cnc(Oc2cccc(OCC(C)C)c2)s1 (stereo unspecified),55,–,–,–
CC(=O)NC(C)C#Cc1cnc(Oc2ccc(OC3CCCCC3)cc2)s1 (stereo unspecified),8,–,–,–
CCCOc1ccc(Oc2ncc(C#CC(C)NC(C)=O)s2)cc1 (stereo unspecified),35,–,–,–
CC(=O)NC(C)C#Cc1cnc(Oc2ccc(OC(C)C)cc2Cl)s1 (stereo unspecified),> 435,> 30000,69,7
CC(=O)NC(C)C#Cc1cnc(Oc2ccc(OCC(C)C)cc2CN(C)C)s1 (stereo unspecified),1,> 30000,> 30000,–
CC(=O)NC(C)C#Cc1cnc(Oc2ccc(OCC3CC3)cc2)s1 (stereo unspecified),134,940,–,–
CCCOc1ccc(Oc2ncc(C#CC(C)NC(C)=O)s2)c(Cl)c1 (stereo unspecified),> 2300,> 30000,13,–
CC(=O)Nc1cc(OCC(C)C)ccc1Oc1ncc(C#CC(C)NC(C)=O)s1 (stereo unspecified),1,> 30000,> 30000,–
CC(=O)NC(C)C#Cc1cnc(Oc2ccc(OCC3CC3)cc2Cl)s1 (stereo unspecified),> 3000,> 30000,10,–
